Test results as given in article PMC10065799, “High-throughput profiling of sequence recognition by tyrosine kinases and SH2 domains using bacterial peptide display” (eLife, 2023).

Target: T1, c-Abl kinase domain (Mus musculus, UniProt P00520)
T1 sequence (P00520 242-493 limits assumed): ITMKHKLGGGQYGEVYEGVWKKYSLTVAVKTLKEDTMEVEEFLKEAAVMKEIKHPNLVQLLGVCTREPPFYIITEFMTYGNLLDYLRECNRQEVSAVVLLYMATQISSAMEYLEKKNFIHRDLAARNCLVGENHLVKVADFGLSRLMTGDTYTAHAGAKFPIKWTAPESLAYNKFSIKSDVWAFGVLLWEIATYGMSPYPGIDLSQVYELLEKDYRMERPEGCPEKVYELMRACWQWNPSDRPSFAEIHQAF
Test: pTyr-Var library bacterial peptide display kinase screen (enrichment scores)
Assay type: biochemical
Details: variant versus reference peptide

ATVQNYLPKCI [A2M_Y817_L815Q]
c-Abl difference (mean log2 variant - mean log2 reference): -0.04049

LHVGFYESDVM [A2M_Y708_R704H]
c-Abl difference (mean log2 variant - mean log2 reference): -1.318
